The test system of one data set is C57BL/6J mice. The data set is described as follows: Drinking in the Dark (DID) model of AUD, ethanol consumption. To be noted: for % DID: Table 3, ↓ = decrease of alcohol consumption; for reduction of ethanol consumption: by gavage, compared with i.p. The data set is classed as in vivo. The text has this: FIGS. 5A to 5C show, 5A) CMMs reduced acute ethanol consumption in the Drinking in the Dark model of AUD. MINO, DeDiAc, and TRI reduced ethanol consumption by over 50% by intraperitoneal injection (Left). […] 5B) Dose response curve for DeDIAc in female mice by gavage. 5C) Dose response curve for DeDIAc in male mice by gavage. MINO=minocycline, BeMAc=Butyl ether monoacetate minocycline, DeDiAc=De amino di acetyl minocycline, TRI=Tri acetyl minocycline. *p<0.05 compared to controls.
(§1) Purity and molecular formula verification of the CMM analogs were done using High Performance Liquid Chromatography (HPLC) Nuclear Magnetic Resonance spectroscopy (NMR) and Liquid Chromatography-Mass Spectrometry (LC-MS) after initial identification via Thin-layer Chromatography (TLC). Zone of inhibition (ZOI) and colony forming unit (CFU) assays were used to assess the antibacterial efficacy of our CMM analogs in E. coli cell culture. Drinking-in-the-Dark (DID) and Two-Bottle Choice (2BC) procedures were utilized in both female and male C57BL/6J mice to evaluate ethanol and water consumption. […] Butyl ether minocycline may be used for an AUD treatment.

In the next data set the test system is E. coli cell culture. The data set is described as follows: Antibacterial efficacy of CMM ether analogs (ZOI and CFU assays, Example 2). To be noted: for Anti-microbial action: Table 3. The data set is classed as cell-based.
Text: as §1

For data set [1] the following is noted: cited from earlier work.
The test system of another data set is AUD traits. To be noted: seven tetracyclines tested (Syapin et al. 2016); cited from earlier work.
For data set [2], the system named is E. coli. The data set is described as follows: Zone of inhibition assay. The class given is cell-based. The settings on record: 24 hour cell culture.
Text: (§2) MINO=minocycline, BeMAc=Butyl ether monoacetate minocycline, DeDiAc=De amino di acetyl minocycline, TRI=Tri acetyl minocycline.
as §1

Data set [3] deals with E. coli. The data set is described as follows: Colony forming unit assay, antibacterial. The data set is classed as cell-based. To be noted: 24 hour cell culture.
Text: as §2, §1

The mark [4] stands for this setting: butyl ether minocycline 100 mg/kg, i.p.

Broadly, the LogD is lipophilicity at a set pH, counting ionised and neutral species. Broadly, the LogP is a log measure of how a compound divides between an organic and an aqueous phase.

“Also recorded” adds a separate entry of the source.

Regarding `CCCCOc1ccc(N(C)C)c2c1C(=O)C1=C(O)C3(O)C(=O)C(C(N)=O)=C(O)C(N(C)C)C3CC1C2.Cl` (stereo not drawn) [Butyl Ether Minocycline HCl, 10-Butoxy-4,7-bis-dimethylamino-3,12,12a-trihydroxy-1,11-dioxo-1,4,4a,5,5a,6,11,12a-octahydro-naphthacene-2-carboxylic acid amide hydrochloride], the “alcohol consumption (in words)” value in the data set on C57BL/6J mice (Example 2, butyl ether minocycline 100 mg/kg, i.p., hydrochloride) is given as “significantly reduced alcohol consumption; also recorded: greatest reduction in alcohol consumption”. Besides, in the data set with C57BL/6J mice (setting [4]), the “% DID” value is recorded as 85%. The “antibiotic / antimicrobial activity (in words)” value in the data set with E. coli cell culture (Example 2, compared to minocycline) is on record as “lost antibiotic activity”. Besides, the Anti-microbial action result in the data set with E. coli cell culture is recorded as “ND 64 mg/ml”.
Take `CN(C)[C@@H]1C(O)=C(C(N)=O)C(=O)[C@@]2(O)C(O)=C3C(=O)c4c(O)ccc(Cl)c4[C@@H](O)[C@H]3C[C@@H]12` [Demeclocycline]: in data set [1], the LogD was −3.40 and the log partition coefficient (LogP) is on record as −1.07.
For the compound `C[C@H]1c2cccc(O)c2C(=O)C2=C(O)[C@]3(O)C(=O)C(C(N)=O)=C(O)[C@@H](N(C)C)[C@@H]3[C@@H](O)[C@@H]21` [Doxycycline], in data set [1], the LogD is reported as −3.29 and the lipophilicity (LogP) is on record as −0.54. Besides, the “effectiveness against AUD traits” value in the data set with AUD traits is “effective”.
As for `CCOc1ccc(N(C)C)c2c1C(=O)C1=C(O)C3(O)C(=O)C(C(N)=O)=C(O)C(N(C)C)C3CC1C2.Cl` (stereo not drawn) [Ethyl Ether Minocycline HCl, 4,7-Bis-dimethylamino-10-ethoxy-3,12,12a-trihydroxy-1,11-dioxo-1,4,4a,5,5a,6,11,12a-octahydro-naphthacene-2-carboxylic acid amide hydrochloride], the “% DID” value in the data set on C57BL/6J mice (setting [4]) is 50%. This compound also displayed an Anti-microbial action in the data set on E. coli cell culture of over 2 mg/mL.
On the same counts, the results for `COc1ccc(N(C)C)c2c1C(=O)C1=C(O)C3(O)C(=O)C(C(N)=O)=C(O)C(N(C)C)C3CC1C2.Cl` (stereo not drawn) [Methyl Ether Minocycline HCl, 4,7-Bis-dimethylamino-3,12,12a-trihydroxy-10-methoxy-1,11-dioxo-1,4,4a,5,5a,6,11,12a-octahydro-naphthacene-2-carboxylic acid amide hydrochloride] are 40% and over 16 mg/mL.
On the same counts, the results for `CN(C)c1ccc(O)c2c1CC1CC3C(N(C)C)C(O)=C(C(N)=O)C(=O)C3(O)C(O)=C1C2=O.Cl` (stereo not drawn) [Minocycline HCl, 4,7-Bis-dimethylamino-3,10,12,12a-tetrahydroxy-1,11-dioxo-1,4,4a,5,5a,6,11,12a-octahydro-naphthacene-2-carboxylic acid amide hydrochloride, reference compound] are 75% and over 0.125 mg/mL.
As for `CN(C)c1ccc(O)c2c1C[C@H]1C[C@H]3[C@H](N(C)C)C(=O)C(C(N)=O)=C(O)[C@@]3(O)C(=O)C1=C2O` [Minocycline, reference compound], the “reduction of ethanol consumption” value in the data set with C57BL/6J mice (Drinking in the Dark) was “reduced ethanol consumption to a lesser degree”. Moreover, the “effectiveness against AUD traits” value in the data set with AUD traits is “effective”.
Turning to `CN(C)[C@@H]1C(O)=C(C(N)=O)C(=O)[C@@]2(O)C(O)=C3C(=O)c4c(O)cccc4[C@@](C)(O)[C@H]3[C@H](O)[C@@H]12` [Oxytetracycline], in data set [1], the LogD was −4.25 and the LogP is reported as −1.5.
With `CCCOc1ccc(N(C)C)c2c1C(=O)C1=C(O)C3(O)C(=O)C(C(N)=O)=C(O)C(N(C)C)C3CC1C2.Cl` (stereo not drawn) [Propyl Ether Minocycline HCl, 4,7-Bis-dimethylamino-3,12,12a-trihydroxy-1,11-dioxo-10-propoxy-1,4,4a,5,5a,6,11,12a-octahydro-naphthacene-2-carboxylic acid amide hydrochloride], the “% DID” value in the data set with C57BL/6J mice (setting [4]) stood at 50%. In the data set on E. coli cell culture, this compound displayed an Anti-microbial action of over 4 mg/mL.
`CN(C)c1cc(NC(=O)CNC(C)(C)C)c(O)c2c1C[C@H]1C[C@H]3[C@H](N(C)C)C(O)=C(C(N)=O)C(=O)[C@@]3(O)C(O)=C1C2=O` [Tigecycline]: in data set [1], the LogD is on record as −2.73 and the LogP is on record as −1.30. Also, the “effectiveness against AUD traits” value with AUD traits is given as “effective”.
As to “Butyl ether monoacetate minocycline [BeMAc]”, the “reduction of ethanol consumption” value in the data set with C57BL/6J mice (Drinking in the Dark) was “reduced ethanol consumption to a lesser degree”.
On to De amino di acetyl minocycline [DeDiAc], for which, in the data set with E. coli [2], the “antibacterial action, zone of inhibition” value was “loss of antibiotic activity”. The “antibacterial action, colony forming units” value in the data set with E. coli [3] was “loss of antibiotic activity”. Besides, the “reduction of ethanol consumption” value in the data set on C57BL/6J mice (Drinking in the Dark) was “reduced ethanol consumption to a lesser degree”. Further, the “ethanol consumption (in words)” value in the data set on C57BL/6J mice (Example 1, Drinking in the Dark, intraperitoneal and oral administration) is on record as “significantly reduced ethanol consumption”.
Consider Tri acetyl minocycline, for which the “reduction of ethanol consumption” value in the data set with C57BL/6J mice (Drinking in the Dark) is “reduced ethanol consumption to a lesser degree”.

Values taken from patent US20230192598A1, “NOVEL MODIFIED TETRACYCLINES FOR TREATMENT OF ALCOHOL USE DISORDER, PAIN AND OTHER DISORDERS INVOLVING POTENTIAL INFLAMMATORY PROCESSES” (Texas Tech University System, priority 2020, published 2023).
